Experimental data: US9789082B2, “Somatostatin receptor subtype 4 (SSTR4) agonists” (Centrexion Therapeutics Corporation, priority 2013, dated 2017)

Assays:
[1] = target: human SSTR4 (Homo sapiens (Human), UniProt P31391); assay: Radioligand binding assay, CHO cell membranes expressing recombinant human SSTR4
Excerpt: (§1) Radioligand Binding Assays
(§2) Method Description for Binding Assays with Human Somatostatin Receptors by Use of CHO Cell Membranes Expressing Recombinant Human SSTR1 or Human SSTR2 or Human SSTR3 or Human SSTR4 or Human SSTR5
(§3) Receptor binding assays refer to a technique in which labeled receptor ligands are used to detect binding to a receptor. In competition experiments test compounds, which are not labeled, compete with the binding side of a labeled ligand. The displacement of the labeled ligand by the test compound leads to a decreased signal.
(§4) For the binding experiments 200 μL of membrane homogenate from one of the following protein amounts is used: hSSTR1 (40 μg/well); hSSTR2 (25 μg/well); hSSTR3 (1.5 μg/well); hSSTR4 (0.5 μg/well); hSSTR5 (25 μg/well). […] The incubation is terminated by filtration with ice cold NaCl 0.9% through polyethyleneimine treated (0.3%) GF/B glass fiber filters using a cell harvester. The protein-bound radioactivity is measured in a suitable reader. The non-specific binding is defined as radioactivity bound in the presence of 1 μM Somatostatin-14 during the incubation period.
(§5) The analysis of the concentration-binding curves is performed by computer-assisted nonlinear least square curve fitting method using the model of one receptor binding site.
(§6) Selectivity data was obtained with the aid of the above described radioligand binding assays.

[2] = target: human Somatostatin 4 receptor (SSTR4) (Homo sapiens (Human), UniProt P31391); assay: cAMP assay with human somatostatin 4 receptor (hSSTR4 expressing H4 cells); assay type: cell-based; conditions: cAMP assay, read-out: SSTR4 agonism EC50
human Somatostatin 4 receptor (SSTR4), sequence (P31391 whole entry): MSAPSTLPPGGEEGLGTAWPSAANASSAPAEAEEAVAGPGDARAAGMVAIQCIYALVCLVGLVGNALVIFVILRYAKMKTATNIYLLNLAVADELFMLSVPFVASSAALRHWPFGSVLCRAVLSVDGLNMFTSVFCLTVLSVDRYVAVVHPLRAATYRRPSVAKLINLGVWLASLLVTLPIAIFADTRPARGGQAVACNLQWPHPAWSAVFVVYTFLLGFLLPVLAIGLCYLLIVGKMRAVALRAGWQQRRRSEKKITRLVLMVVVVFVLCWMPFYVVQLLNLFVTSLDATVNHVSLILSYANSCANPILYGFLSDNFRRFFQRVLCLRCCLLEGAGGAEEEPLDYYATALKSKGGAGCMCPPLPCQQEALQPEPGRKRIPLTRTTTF
Procedure: Camp Assay Method Description for cAMP Assay with Human Somatostatin 4 Receptor
The activation of the SSTR4 receptor (Gi coupled) causes an inhibition of intracellular cAMP after stimulation with Forskolin, which can be quantifiable by use of a suitable assay Kit and an adequate plate reader. This technique is used to characterize pharmacological effects of the SSTR4 receptor agonists by use of hSSTR4 expressing H4 cells.
Compounds are dissolved and diluted in DMSO. The final test solution contains 1% DMSO. […] Cells are centrifuged and suspended in assay buffer (incl. 1:100 diluted Alexa antibody).
For the assay 5 μl of a cell suspension (approximately 5000 cells/well)—incl. Alexa antibody (diluted 1:100) are added into a 384 well MTP microtitre plate excepting one row or column (depending on the plate layout), which is reserved for the standard curve. Then 2 μl of compound sample is added as concentration response curve (e.g. 1e-5 M to 6e-10 M), usually in triplicates. Each assay contains incubations with vehicle controls instead of compound as controls for non-inhibited cAMP generation (100% CTL; ‘high values’) and incubations with 1 μM Somatosatin as controls for full inhibition and background (0% CTL; […]). […] Then the plates are shaken briefly and incubated for 60 min at room temperature. After 60 min 10 μl of the detection mix is added into all wells followed by an additional incubation period of 1 h. The plates are read in a suitable plate reader.
From this ratio, cAMP concentrations are calculated from standard curve and the EC50 is estimated by least square curve fit program.
The EC50 values were obtained with the aid of the above described cAMP ASSAY.

[3] = target: human SSTR2 (Homo sapiens (Human), UniProt P30874); assay: Radioligand binding assay, CHO cell membranes expressing recombinant human SSTR2
human SSTR2, sequence (P30874 whole entry): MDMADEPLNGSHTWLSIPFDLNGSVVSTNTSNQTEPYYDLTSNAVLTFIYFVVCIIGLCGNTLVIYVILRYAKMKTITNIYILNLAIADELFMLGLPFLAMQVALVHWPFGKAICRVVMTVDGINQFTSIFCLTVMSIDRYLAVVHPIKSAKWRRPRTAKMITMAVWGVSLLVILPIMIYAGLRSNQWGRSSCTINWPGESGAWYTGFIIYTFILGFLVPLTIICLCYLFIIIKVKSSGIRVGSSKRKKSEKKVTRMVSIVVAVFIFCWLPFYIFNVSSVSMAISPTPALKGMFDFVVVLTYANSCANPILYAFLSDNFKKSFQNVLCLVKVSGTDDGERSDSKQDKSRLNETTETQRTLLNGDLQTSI
Excerpt: as §1, §2, §3, §4, §5, §6

[4] = target: human SSTR1 (Homo sapiens (Human), UniProt P30872); assay: Radioligand binding assay, CHO cell membranes expressing recombinant human SSTR1
human SSTR1, sequence (P30872 whole entry): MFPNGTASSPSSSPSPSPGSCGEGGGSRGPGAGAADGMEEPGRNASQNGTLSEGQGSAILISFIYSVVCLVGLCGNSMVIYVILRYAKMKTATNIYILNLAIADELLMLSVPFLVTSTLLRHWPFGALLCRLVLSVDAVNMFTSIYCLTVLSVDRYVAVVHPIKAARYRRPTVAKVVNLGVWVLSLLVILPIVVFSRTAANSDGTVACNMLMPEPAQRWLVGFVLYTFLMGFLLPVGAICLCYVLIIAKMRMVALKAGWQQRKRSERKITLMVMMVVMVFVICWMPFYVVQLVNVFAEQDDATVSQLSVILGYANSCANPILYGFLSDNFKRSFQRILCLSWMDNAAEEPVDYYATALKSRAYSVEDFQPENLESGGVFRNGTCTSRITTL
Excerpt: as §1, §2, §3, §4, §5, §6

[5] = target: human SSTR3 (Homo sapiens (Human), UniProt P32745); assay: Radioligand binding assay, CHO cell membranes expressing recombinant human SSTR3
human SSTR3, sequence (P32745 whole entry): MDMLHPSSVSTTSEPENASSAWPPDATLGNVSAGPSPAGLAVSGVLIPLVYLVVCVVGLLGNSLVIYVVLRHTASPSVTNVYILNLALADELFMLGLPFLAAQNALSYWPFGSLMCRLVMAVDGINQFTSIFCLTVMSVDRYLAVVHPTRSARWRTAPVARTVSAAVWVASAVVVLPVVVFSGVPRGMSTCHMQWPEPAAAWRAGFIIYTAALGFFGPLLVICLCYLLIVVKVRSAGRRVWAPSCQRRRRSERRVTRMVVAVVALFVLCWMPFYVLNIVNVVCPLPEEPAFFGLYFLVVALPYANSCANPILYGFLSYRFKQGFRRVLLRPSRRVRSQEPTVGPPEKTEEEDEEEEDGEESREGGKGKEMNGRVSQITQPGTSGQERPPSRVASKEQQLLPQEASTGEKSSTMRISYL
Excerpt: as §1, §2, §3, §4, §5, §6

[6] = target: human SSTR5 (Homo sapiens (Human), UniProt P35346); assay: Radioligand binding assay, CHO cell membranes expressing recombinant human SSTR5
human SSTR5, sequence (P35346 whole entry): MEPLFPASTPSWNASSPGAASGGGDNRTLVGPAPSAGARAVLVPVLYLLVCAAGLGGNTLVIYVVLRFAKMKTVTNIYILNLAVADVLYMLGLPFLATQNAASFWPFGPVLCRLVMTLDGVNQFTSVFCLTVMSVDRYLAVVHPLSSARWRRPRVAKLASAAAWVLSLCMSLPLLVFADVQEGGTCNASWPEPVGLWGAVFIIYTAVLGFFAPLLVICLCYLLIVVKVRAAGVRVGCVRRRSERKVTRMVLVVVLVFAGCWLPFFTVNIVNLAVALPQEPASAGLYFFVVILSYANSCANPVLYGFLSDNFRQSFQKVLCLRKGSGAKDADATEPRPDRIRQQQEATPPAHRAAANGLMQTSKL
Excerpt: as §1, §2, §3, §4, §5, §6

[7] = Metabolic stability in pooled human liver microsomes (half-life); assay type: in vitro ADME; conditions: 1 μM test compound; for half-life at 1 μM: pooled human liver microsomes, pH 7.6, 37° C., read-out: Half-life t1/2; for Half-life t1/2: 37° C.
Procedure: The metabolic stability of the compounds according to the invention may be investigated as follows:
The metabolic degradation of the test compound is assayed at 37° C. with pooled human liver microsomes. The final incubation volume of 100 μl per time point contains TRIS buffer pH 7.6 at room temperature (0.1 M), magnesium chloride (5 mM), microsomal protein (1 mg/mL) and the test compound at a final concentration of 1 μM. Following a short preincubation period at 37° C., the reactions are initiated by addition of beta-nicotinamide adenine dinucleotide phosphate, reduced form (NADPH, 1 mM), and terminated by transferring an aliquot into solvent after different time points. After centrifugation (10000 g, 5 min), an aliquot of the supernatant is assayed by LC-MS/MS for the amount of parent compound. The half-life is determined by the slope of the semi-logarithmic plot of the concentration-time profile.

human SSTR4, sequence (P31391 whole entry): as the sequence (P31391 whole entry) above

Half-life t1/2 [7] [h]	SMILES	Ki [1] [nM]	EC50 [2] [nM]	Ki [3] [nM]	Ki [4] [nM]	Ki [5] [nM]	Ki [6] [nM]	half-life at 1 μM [7] [h]
	CC(C)(NC(=O)[C@H]1[C@@H]2CNC[C@@H]21)c1ccnc2ccccc12.Cl [Example 21]	10.8	0.7	> 9590	> 8910	> 8580	> 9850	> 2.17
	Cc1cc2cccnc2c(C(C)(C)NC(=O)[C@H]2[C@@H]3CNC[C@@H]32)n1 [Example 78]	97.2	3.2	> 9630	6640	> 8710	> 9860	> 2.17
	Cc1ncc(C(C)(C)NC(=O)[C@H]2[C@@H]3CNC[C@@H]32)c2ccccc12 [Example 80]	1.2	0.3	> 9630	508	> 8710	> 9860	> 2.17
	Cc1nc(C(C)(C)NC(=O)[C@H]2[C@@H]3CNC[C@@H]32)c2ccccc2n1 [Example 138]	70.3	4.3	> 9630	7360	> 8710	> 9860	> 2.17
	Cc1ncccc1OCC(C)(C)NC(=O)[C@H]1[C@@H]2CNC[C@@H]21.Cl [Example 44]		361					> 2.17
	Cc1cccn2c(C3(NC(=O)[C@H]4[C@@H]5CNC[C@@H]54)CCC3)ncc12 [Example 137]		0.8					> 2.17
	Cc1cc(F)ccc1OCC(C)(C)NC(=O)[C@H]1[C@@H]2CNC[C@@H]21.Cl [Example 13]		2.4					> 2.17
	CC(C)(NC(=O)[C@H]1[C@@H]2CNC[C@@H]21)c1cnn2c1CCCC2 [Example 168]		47.3					> 2.17
	Cc1cccc2c(C(C)(C)NC(=O)[C@H]3[C@@H]4CNC[C@@H]43)nn(C)c12 [Example 107]			> 9600	4300	> 8600	> 9850	> 2.17
	CC(C)(NC(=O)[C@H]1[C@@H]2CNC[C@@H]21)c1n[nH]c2c(F)cccc12 [Example 109]		0.3					> 2.17
	CC(C)(NC(=O)[C@H]1[C@@H]2CNC[C@@H]21)c1nc(C2CC2)nc2ccccc12 [Example 141]		3.3					> 2.17
	CC(C)(NC(=O)[C@H]1[C@@H]2CNC[C@@H]21)c1noc2c(C(F)(F)F)cccc12 [Example 102]		2.3					> 2.17
	CC(C)(COc1nnccc1C(F)(F)F)NC(=O)[C@H]1[C@@H]2CNC[C@@H]21 [Example 58]		22					> 2.17
	CC(C)(NC(=O)[C@H]1[C@@H]2CNC[C@@H]21)c1cnc2ccccn12.Cl [Example 20]		8.5					> 2.17
	Cc1cccn2c(C(C)(C)NC(=O)[C@H]3[C@@H]4CNC[C@@H]43)nnc12 [Example 142]		4					> 2.17
	Cc1cc2ccccc2c(C(C)(C)NC(=O)[C@H]2[C@@H]3CNC[C@@H]32)n1.Cl [Example 22]	3.7	0.4	> 9590	848		> 9850	> 2.17
>2.17	CC(C)(NC(=O)[C@H]1[C@@H]2CNC[C@@H]21)c1n[nH]c2ccccc12 [Example 94]	15.9		> 9630	> 9480	> 8690	> 9770	
	CC(C)(NC(=O)[C@H]1[C@@H]2CNC[C@@H]21)c1cc2ccccn2c1 [Example 87]		22.9					> 2.17
	CC(C)(NC(=O)[C@H]1[C@@H]2CNC[C@@H]21)c1ncc2ccccn12.Cl [Example 68]		4.7					> 2.17

Half-life t1/2 [7] [h]	SMILES	Ki [1] [nM]	EC50 [2] [nM]	Ki [3] [nM]	Ki [4] [nM]	Ki [5] [nM]	Ki [6] [nM]	half-life at 1 μM [7] [h]
	Cc1ccccc1OCC(C)(C)NC(=O)[C@H]1[C@@H]2CN(C)C[C@@H]21.Cl [Example 71]		26.9					2
	Cc1cccn2c(C(C)(C)NC(=O)[C@H]3[C@@H]4CNC[C@@H]43)cnc12 [Example 150]		0.9					> 2.17
	Cn1nc(C(C)(C)NC(=O)[C@H]2[C@@H]3CNC[C@@H]32)c2c(F)cccc21 [Example 74]		1.6					0.6
>2.17	Cc1cccc2c(C(C)(C)NC(=O)[C@H]3[C@@H]4CNC[C@@H]43)n[nH]c12 [Example 93]			> 9630	7030	> 8690	> 9770	
	Cc1cccc2c(C(C)NC(=O)[C@H]3[C@@H]4CNC[C@@H]43)nn(C)c12 (single isomer, unassigned) [Example 119]		3.2					> 2.17
	Cc1cccn2c(C(C)(C)NC(=O)[C@H]3[C@@H]4CNC[C@@H]43)nc(C(F)(F)F)c12.Cl [Example 129]		6.8					> 2.17
	C[C@H](NC(=O)[C@H]1[C@@H]2CNC[C@@H]21)c1cccc2ccccc12 [Example 10]		10.7					> 2.17
	O=C(NC1(Cc2ccccc2C(F)(F)F)CC1)[C@H]1[C@@H]2CNC[C@@H]21 [Example 2]		56.5					> 2.17
	CC(C)(NC(=O)[C@H]1[C@@H]2CNC[C@@H]21)c1noc2ccccc12 [Example 51]		7.4					> 2.17
	CC(NC(=O)[C@H]1[C@@H]2CNC[C@@H]21)c1nn(C)c2c(Cl)cccc12 (stereo partly drawn) [Example 114]		4.7					> 2.17
	CC(C)(COc1cnc(Cl)c2ccccc12)NC(=O)[C@H]1[C@@H]2CNC[C@@H]21 [Example 53]		9.8					0.783
	Cc1ccc(C(C)(C)NC(=O)[C@H]2[C@@H]3CNC[C@@H]32)n2ccnc12 [Example 83]		11					> 2.17
	Cn1nc(C(C)(C)NC(=O)[C@H]2[C@@H]3CNC[C@@H]32)c2cccc(F)c21 [Example 105]		0.4					> 2.17
	COc1cccn2c(C(C)(C)NC(=O)[C@H]3[C@@H]4CNC[C@@H]43)ncc12 [Example 140]		0.6					> 2.17
	Cc1ccncc1OCC(C)(C)NC(=O)[C@H]1[C@@H]2CNC[C@@H]21 [Example 38]		27.8					> 2.17
	CC(C)(NC(=O)[C@H]1[C@@H]2CNC[C@@H]21)c1ncc2c(C3CC3)cccn12 [Example 146]		2.6					> 2.17
>2.17	Cc1cc(C2CC2)ccc1OCC(C)(C)NC(=O)[C@H]1[C@@H]2CNC[C@@H]21 [Example 65]		29.8					
	CC(C)(COc1ncccc1C(F)(F)F)NC(=O)[C@H]1[C@@H]2CNC[C@@H]21 [Example 52]		2.4					> 2.17
